experiment: recombinant barcode read abundance after kanamycin selection (control-corrected) (log10(CPM+1)); higher = more efficient recombination; sequences stand for … in AGTGCAGAGAAAATCGGCCAGTTTTCTCTGCCTGCAGTCCGCATGCCGT…AGATTTATGCAGCGGACTGCCTTTCTCCCAAAGTGATAAACCGGACAGTATCATGGACCGGTTTTCCCGGTAATCCGTATTTGCAAGGTTGGTTTCACT; site = the 11-nt target
Outline: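 Duplicate cultures were plated either on chloramphenicol/ampicillin LB agar, serving as control, or on chloramphenicol/ampicillin/kanamycin with 0.1 mM IPTG. These came from a pooled E. coli library co-electroporated with a donor plasmid, each member pairing a target with an IS621 bridge RNA target-binding loop. Recombination efficiency equals averaged, control-corrected counts per million of recombinant-junction barcodes. It is listed as log10(CPM+1).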
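Also: IS621 recombinase and bridge RNA in Escherichia coli cells.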

Point of comparison: “CCTAATCCTTGGGTTCTAACCTGTTGCGT (site CCTAAACCTAC)”, “recombinant barcode read abundance (log10)” value 0.0528. Against it:
- CCTAAGCCTTGGGTTCTAACCTGTTGCGT (site CCTAACCCTAC) — higher, 0.977
- CCTAAGCCTTGGGTTCTAACCTGTTGCGT (site CCTAAGCCTAC) — higher, 1.21
- CCTAAGCCTTGGGTTCTAACCTGTTGCGT (site CCTAATCCTAC) — within 0.2 log units, 0.161
- CCTAAGCCTTGGGTTCTAACCTGTTGCTG (site CCTAAGCCTCA) — higher, 0.473
- CCTAAGCCTTGGGTTCTAACCTGTTGCTG (site TACCCTTCTAC) — within 0.2 log units, 0.141
- CCTAATACTTGGGTTCTAACCTGTTGCGT (site CCTAATACTAC) — higher, 0.988
- CCTAATACTTGGGTTCTAACCTGTTGCGT (site CCTTAGACTAC) — within 0.2 log units, 0.0351
- CCTAATCCTTGGGTTCTAACCTGTTGCGT (site CCTAACCCTAC) — higher, 0.295
- CCTAATCCTTGGGTTCTAACCTGTTGCGT (site CCTAAGCCTAC) — within 0.2 log units, 0.22
- CCTAATCCTTGGGTTCTAACCTGTTGCGT (site CCTAATCCTAC) — higher, 1.1
- CCTACAACTTGGGTTCTAACCTGTTGCCT (site CCTACAACTAG) — higher, 0.313
- CCTACAACTTGGGTTCTAACCTGTTGCCT (site CCTACACCTAG) — within 0.2 log units, 0.0313
- CCTACAACTTGGGTTCTAACCTGTTGCCT (site CCTACAGCTAG) — within 0.2 log units, 0.138
- CCTACAACTTGGGTTCTAACCTGTTGCCT (site CCTACATCTAG) — within 0.2 log units, 0.227
- CCTACAGCTTGGGTTCTAACCTGTTGCCT (site CCTACAACTAG) — higher, 0.363
- CCTACAGCTTGGGTTCTAACCTGTTGCCT (site CCTACACCTAG) — higher, 0.37
- CCTACAGCTTGGGTTCTAACCTGTTGCCT (site CCTACAGCTAG) — higher, 0.532
- CCTACAGCTTGGGTTCTAACCTGTTGCCT (site CCTACATCTAG) — within 0.2 log units, 0.0747
- CCTACATCTTGGGTTCTAACCTGTTGCTA (site CCTACATCTAT) — within 0.2 log units, 0.177
- CCTACATCTTGGGTTCTAACCTGTTGCTA (site CCTACATCTTA) — within 0.2 log units, 0.0332
- CCTACGCCTTGGGTTCTAACCTGTTGCCA (site CCTACGCCTTG) — higher, 0.842
- CCTACGCCTTGGGTTCTAACCTGTTGCCA (site TTCCGAGCTCT) — within 0.2 log units, 0
- CCTACTACTTGGGTTCTAACCTGTTGCCG (site CCTACTACTCG) — within 0.2 log units, 0.0812
- CCTACTACTTGGGTTCTAACCTGTTGCCG (site CCTACTCCTCT) — within 0.2 log units, 0.0358
- CCTACTCCTTGGGTTCTAACCTGTTGCCT (site CCTACTCCTAG) — higher, 0.281
- CCTACTCCTTGGGTTCTAACCTGTTGCCT (site CCTGCTCCTAA) — within 0.2 log units, 0.0634
- CCTAGAGCTTGGGTTCTAACCTGTTGCCT (site CCTAGAACTAG) — within 0.2 log units, 0.097
- CCTAGAGCTTGGGTTCTAACCTGTTGCCT (site CCTAGACCTAG) — within 0.2 log units, 0.241
- CCTAGAGCTTGGGTTCTAACCTGTTGCCT (site CCTAGAGCTAG) — higher, 0.694
- CCTAGAGCTTGGGTTCTAACCTGTTGCCT (site CCTAGATCTAG) — within 0.2 log units, 0.0587
- CCTAGATCTTGGGTTCTAACCTGTTGCCT (site CCTAGAACTAG) — within 0.2 log units, 0.107
- CCTAGATCTTGGGTTCTAACCTGTTGCCT (site CCTAGACCTAG) — within 0.2 log units, 0.141
- CCTAGATCTTGGGTTCTAACCTGTTGCCT (site CCTAGAGCTAG) — within 0.2 log units, 0.0181
- CCTAGATCTTGGGTTCTAACCTGTTGCCT (site CCTAGATCTAG) — higher, 0.372
- CCTATGTCTTGGGTTCTAACCTGTTGCTA (site ACTATGTCTTG) — within 0.2 log units, 0.0985
- CCTATGTCTTGGGTTCTAACCTGTTGCTA (site CCTATGTCTTA) — higher, 0.528
- CCTCCCTCTTGGGTTCTAACCTGTTGCTA (site CCTCCCTCTCA) — higher, 0.481
- CCTCCCTCTTGGGTTCTAACCTGTTGCTA (site CCTCCCTCTTA) — higher, 1.84
- CCTGACACTTGGGTTCTAACCTGTTGCGG (site CCTGACACTCC) — higher, 1.66
- CCTGACACTTGGGTTCTAACCTGTTGCGG (site CCTTACACTCC) — within 0.2 log units, 0.232
- CCTGGGACTTGGGTTCTAACCTGTTGCGC (site CCTGGGACTAC) — higher, 0.684
- CCTGGGACTTGGGTTCTAACCTGTTGCGC (site CCTGGGACTCC) — higher, 0.347
